Data: ChEMBL document CHEMBL1909046, “DrugMatrix in vitro pharmacology data”

What was measured:
[1] = biological target: T1, Alpha-1A adrenergic receptor (Rattus norvegicus, UniProt P43140); test: DRUGMATRIX: Alpha-1A adrenergic receptor radioligand binding (ligand: prazosin); format: cell membranes, Wistar, Submaxillary gland, Membrane; settings: Not Active = under 50% inhibition at 10 µM
T1 sequence (P43140 whole entry): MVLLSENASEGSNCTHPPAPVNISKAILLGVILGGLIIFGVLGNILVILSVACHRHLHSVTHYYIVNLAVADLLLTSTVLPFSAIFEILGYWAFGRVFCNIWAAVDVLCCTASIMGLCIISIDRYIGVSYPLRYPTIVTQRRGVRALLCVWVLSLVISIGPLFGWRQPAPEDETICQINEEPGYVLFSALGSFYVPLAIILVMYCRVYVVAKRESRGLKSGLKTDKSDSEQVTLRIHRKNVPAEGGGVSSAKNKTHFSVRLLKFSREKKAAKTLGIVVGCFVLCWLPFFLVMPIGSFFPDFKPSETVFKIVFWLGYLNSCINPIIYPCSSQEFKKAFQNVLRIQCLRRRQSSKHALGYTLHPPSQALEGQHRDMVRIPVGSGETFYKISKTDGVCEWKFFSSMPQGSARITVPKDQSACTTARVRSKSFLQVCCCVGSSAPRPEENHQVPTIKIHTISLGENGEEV

[2] = biological target: T2, Vasoactive intestinal polypeptide receptor 1 (Homo sapiens, UniProt P32241); format: cell membranes, Membrane; settings: ht-29; note: in other assays of this panel Not Active means under 50% inhibition at 10 µM
T2 sequence (P32241 whole entry): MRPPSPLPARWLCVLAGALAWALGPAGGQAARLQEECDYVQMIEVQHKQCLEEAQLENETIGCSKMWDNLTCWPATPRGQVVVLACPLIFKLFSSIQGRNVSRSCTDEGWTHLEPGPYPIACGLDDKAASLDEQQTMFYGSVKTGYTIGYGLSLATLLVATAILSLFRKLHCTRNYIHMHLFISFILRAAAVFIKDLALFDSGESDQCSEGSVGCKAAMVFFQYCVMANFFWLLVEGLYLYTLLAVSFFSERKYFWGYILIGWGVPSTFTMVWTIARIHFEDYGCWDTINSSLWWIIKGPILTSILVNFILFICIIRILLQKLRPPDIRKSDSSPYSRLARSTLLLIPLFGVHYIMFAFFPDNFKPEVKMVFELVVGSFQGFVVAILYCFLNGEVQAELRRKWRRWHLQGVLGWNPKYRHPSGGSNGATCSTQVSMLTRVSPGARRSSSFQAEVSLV

[3] = biological target: Prostaglandin G/H synthase 1 (Homo sapiens, UniProt P23219); test: biochemical; format: tissue-based, Platelet;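 note: inhibition of COX-1 enzyme activity, with arachidonic acid supplied as substrate; in other assays of this panel Not Active means under 50% inhibition at 10 µM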
Nitric oxide synthase 1 = Nitric oxide synthase 1 (Rattus norvegicus, UniProt P29476); format: tissue-based, Cerebellum; note: in other assays of this panel Not Active means under 50% inhibition at 10 µM
Caspase-1 = biological target: T3, Caspase-1 (Homo sapiens, UniProt P29466); set-up: species or system Escherichia coli;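 note: Caspase-1 enzyme inhibition assay with a peptide substrate; in other assays of this panel Not Active means under 50% inhibition at 10 µM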
T3 sequence (P29466 whole entry): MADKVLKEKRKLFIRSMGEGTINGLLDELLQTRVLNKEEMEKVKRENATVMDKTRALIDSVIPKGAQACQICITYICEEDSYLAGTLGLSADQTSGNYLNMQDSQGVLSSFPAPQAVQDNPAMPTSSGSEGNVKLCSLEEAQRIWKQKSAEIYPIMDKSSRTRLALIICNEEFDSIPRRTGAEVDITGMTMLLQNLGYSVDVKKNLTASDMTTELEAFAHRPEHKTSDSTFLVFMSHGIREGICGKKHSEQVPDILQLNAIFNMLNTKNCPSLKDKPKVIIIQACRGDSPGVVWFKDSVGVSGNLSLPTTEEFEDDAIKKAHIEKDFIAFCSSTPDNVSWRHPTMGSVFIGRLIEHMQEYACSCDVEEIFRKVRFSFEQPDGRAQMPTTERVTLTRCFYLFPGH

Adenosine receptor A2a = Adenosine receptor A2a (Homo sapiens, UniProt P29274); test: DRUGMATRIX: Adenosine A2A radioligand binding (ligand: […]); format: cell membranes, HEK293, Membrane; settings: Not Active = under 50% inhibition at 10 µM
Cytochrome P450 2E1 = Cytochrome P450 2E1 (Homo sapiens, UniProt P05181); settings: bti-tn-5b1-4; note: in other assays of this panel Not Active means under 50% inhibition at 10 µM
Chain of Cytochrome P450 2E1 (P05181 whole entry): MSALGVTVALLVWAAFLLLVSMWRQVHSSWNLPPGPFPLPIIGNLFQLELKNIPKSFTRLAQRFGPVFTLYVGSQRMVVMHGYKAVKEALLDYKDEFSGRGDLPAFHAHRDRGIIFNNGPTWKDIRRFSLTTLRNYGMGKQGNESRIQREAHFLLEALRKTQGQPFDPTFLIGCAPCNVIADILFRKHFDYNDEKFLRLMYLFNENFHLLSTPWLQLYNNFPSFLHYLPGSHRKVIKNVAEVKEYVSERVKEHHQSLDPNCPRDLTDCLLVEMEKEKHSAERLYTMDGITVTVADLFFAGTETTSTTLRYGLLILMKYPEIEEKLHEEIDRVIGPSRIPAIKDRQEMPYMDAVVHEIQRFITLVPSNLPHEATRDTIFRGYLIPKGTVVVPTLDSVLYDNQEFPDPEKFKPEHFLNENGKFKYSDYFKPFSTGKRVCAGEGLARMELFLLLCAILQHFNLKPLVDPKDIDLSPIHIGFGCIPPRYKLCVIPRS

Chain of Adenosine receptor A2a (P29274 whole entry): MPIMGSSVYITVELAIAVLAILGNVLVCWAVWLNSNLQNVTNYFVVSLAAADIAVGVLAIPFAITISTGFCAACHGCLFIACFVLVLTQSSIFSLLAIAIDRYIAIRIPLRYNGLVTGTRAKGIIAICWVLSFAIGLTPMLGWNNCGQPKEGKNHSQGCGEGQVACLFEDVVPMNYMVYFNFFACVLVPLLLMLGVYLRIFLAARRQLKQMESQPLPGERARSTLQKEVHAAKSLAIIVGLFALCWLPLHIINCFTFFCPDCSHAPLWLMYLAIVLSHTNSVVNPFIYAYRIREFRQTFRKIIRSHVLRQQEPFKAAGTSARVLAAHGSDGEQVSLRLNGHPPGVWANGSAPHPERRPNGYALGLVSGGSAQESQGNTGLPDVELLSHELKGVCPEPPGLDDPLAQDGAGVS
Chain of Nitric oxide synthase 1 (P29476 whole entry): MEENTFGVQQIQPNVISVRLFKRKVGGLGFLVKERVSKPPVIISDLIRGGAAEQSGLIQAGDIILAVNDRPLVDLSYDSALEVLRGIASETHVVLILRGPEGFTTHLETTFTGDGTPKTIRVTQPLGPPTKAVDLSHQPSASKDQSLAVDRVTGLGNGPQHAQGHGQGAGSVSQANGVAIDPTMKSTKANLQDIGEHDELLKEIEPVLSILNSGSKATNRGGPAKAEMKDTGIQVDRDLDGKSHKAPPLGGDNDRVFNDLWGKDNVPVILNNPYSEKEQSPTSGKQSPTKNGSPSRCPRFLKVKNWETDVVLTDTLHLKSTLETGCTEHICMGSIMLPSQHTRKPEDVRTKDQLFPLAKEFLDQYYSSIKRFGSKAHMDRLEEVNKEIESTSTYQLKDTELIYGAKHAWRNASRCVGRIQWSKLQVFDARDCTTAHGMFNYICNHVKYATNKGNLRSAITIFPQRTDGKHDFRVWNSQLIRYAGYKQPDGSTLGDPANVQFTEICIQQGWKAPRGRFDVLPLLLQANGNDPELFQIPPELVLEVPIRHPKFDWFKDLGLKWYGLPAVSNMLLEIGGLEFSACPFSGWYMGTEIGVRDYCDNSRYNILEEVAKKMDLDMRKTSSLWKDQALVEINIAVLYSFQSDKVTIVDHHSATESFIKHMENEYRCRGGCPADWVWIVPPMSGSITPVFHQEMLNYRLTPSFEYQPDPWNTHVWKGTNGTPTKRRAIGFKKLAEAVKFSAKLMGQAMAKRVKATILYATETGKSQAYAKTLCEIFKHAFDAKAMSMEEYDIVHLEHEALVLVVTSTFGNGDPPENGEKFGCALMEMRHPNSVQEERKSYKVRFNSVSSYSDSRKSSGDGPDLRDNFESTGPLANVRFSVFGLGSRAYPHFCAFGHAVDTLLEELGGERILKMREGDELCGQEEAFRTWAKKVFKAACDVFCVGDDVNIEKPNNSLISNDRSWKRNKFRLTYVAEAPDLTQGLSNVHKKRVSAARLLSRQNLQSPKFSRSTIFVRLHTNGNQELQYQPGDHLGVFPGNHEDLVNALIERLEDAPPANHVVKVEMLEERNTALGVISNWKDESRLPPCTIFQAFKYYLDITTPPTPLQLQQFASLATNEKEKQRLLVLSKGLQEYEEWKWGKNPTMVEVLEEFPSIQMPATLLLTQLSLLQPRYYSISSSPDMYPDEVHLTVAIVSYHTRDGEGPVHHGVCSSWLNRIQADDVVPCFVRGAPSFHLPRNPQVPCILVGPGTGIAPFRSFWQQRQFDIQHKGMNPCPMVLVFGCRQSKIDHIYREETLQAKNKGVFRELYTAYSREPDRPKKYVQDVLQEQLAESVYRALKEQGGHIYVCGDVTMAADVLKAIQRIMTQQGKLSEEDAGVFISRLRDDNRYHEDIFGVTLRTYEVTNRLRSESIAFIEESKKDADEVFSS
Chain of Prostaglandin G/H synthase 1 (P23219 whole entry): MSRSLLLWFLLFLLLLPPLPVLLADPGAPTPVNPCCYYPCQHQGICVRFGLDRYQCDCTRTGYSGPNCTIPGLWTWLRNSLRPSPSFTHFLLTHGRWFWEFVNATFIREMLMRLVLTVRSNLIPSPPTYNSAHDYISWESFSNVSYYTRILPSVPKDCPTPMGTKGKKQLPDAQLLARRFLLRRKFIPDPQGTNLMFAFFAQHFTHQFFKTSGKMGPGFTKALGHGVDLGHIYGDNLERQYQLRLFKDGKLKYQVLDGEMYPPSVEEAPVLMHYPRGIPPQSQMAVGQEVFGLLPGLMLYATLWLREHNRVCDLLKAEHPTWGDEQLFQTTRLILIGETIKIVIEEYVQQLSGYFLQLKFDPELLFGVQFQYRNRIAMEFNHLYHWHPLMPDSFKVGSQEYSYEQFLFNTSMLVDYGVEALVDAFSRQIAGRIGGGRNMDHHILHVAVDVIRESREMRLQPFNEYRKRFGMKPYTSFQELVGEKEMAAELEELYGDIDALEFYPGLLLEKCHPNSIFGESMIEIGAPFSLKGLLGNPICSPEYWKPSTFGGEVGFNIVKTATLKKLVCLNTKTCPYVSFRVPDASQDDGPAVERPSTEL

Row | Compound | IC50 ([1]; read-out: IC50) | Ki ([1]; read-out: Ki) | IC50 [2] | IC50 ([3]; platelet) | IC50 (Nitric oxide synthase 1) | IC50 (Caspase-1) | IC50 (Adenosine receptor A2a; hek293) | IC50 (Cytochrome P450 2E1) | Ki (Cytochrome P450 2E1) | IC50 [1] | IC50 (Adenosine receptor A2a; read-out: IC50) | Ki (Adenosine receptor A2a; read-out: Ki) | IC50 ([3]; read-out: IC50)
1 | N=C(N)c1ccc(OCCCCCOc2ccc(C(=N)N)cc2)cc1 [PENTAMIDINE] | 1.21 µM | 0.491 µM | Not Active | Not Active | Not Active | Not Active | Not Active | Not Active | Not Active |  |  |  | 
2 | CCOc1nc2cccc(C(=O)O)c2n1Cc1ccc(-c2ccccc2-c2nnn[nH]2)cc1 |  |  | Not Active | Not Active | Not Active | Not Active | Not Active | Not Active | Not Active | Not Active |  |  | 
3 | COc1cccc2c1C(=O)c1c(O)c3c(c(O)c1C2=O)C[C@@](O)(C(C)=O)C[C@@H]3O[C@H]1C[C@H](N)[C@H](O)[C@H](C)O1 [DAUNORUBICIN] |  |  | Not Active | Not Active | Not Active | Not Active | Not Active | Not Active | Not Active | Not Active |  |  | 
4 | CC(O)(P(=O)(O)O)P(=O)(O)O [ETIDRONIC ACID] |  |  | Not Active | Not Active | Not Active | Not Active | Not Active | Not Active | Not Active | Not Active |  |  | 
5 | O=c1[nH]c(=O)n([C@H]2C[C@H](O)[C@@H](CO)O2)cc1F [FLOXURIDINE] |  |  | Not Active | Not Active | Not Active | Not Active | Not Active | Not Active | Not Active | Not Active |  |  | 
6 | O=C(O)CC(O)(CC(=O)O)C(=O)O [CITRIC ACID] |  |  | Not Active | Not Active | Not Active | Not Active | Not Active | Not Active | Not Active | Not Active |  |  | 
7 | CCCCC1=NC2(CCCC2)C(=O)N1Cc1ccc(-c2ccccc2-c2nnn[nH]2)cc1 [IRBESARTAN] |  |  | Not Active | Not Active | Not Active | Not Active | Not Active | Not Active | Not Active | Not Active |  |  | 
8 | O=c1c(-c2ccc(O)cc2)coc2cc(O)cc(O)c12 [GENISTEIN] |  |  | Not Active | Not Active | Not Active | Not Active |  | Not Active | Not Active | Not Active | 17.4 µM | 9.79 µM | 
9 | CN(C)C(=N)NC(=N)N [METFORMIN] |  |  | Not Active | Not Active | Not Active | Not Active | Not Active | Not Active | Not Active | Not Active |  |  | 
10 | C[C@H]1O[C@H](O[C@H]2[C@H](O)[C@@H](O)[C@@H](O[C@H]3[C@H](O)[C@@H](O)C(O)O[C@@H]3CO)O[C@@H]2CO)[C@H](O)[C@@H](O)[C@@H]1N[C@H]1C=C(CO)[C@@H](O)[C@H](O)[C@H]1O (stereo partly drawn) [ACARBOSE] |  |  | Not Active | Not Active | Not Active | Not Active | Not Active | Not Active | Not Active | Not Active |  |  | 
11 | COc1ccccc1N |  |  | Not Active |  | Not Active | Not Active | Not Active | Not Active | Not Active | Not Active |  |  | 3.15 µM
12 | CC(O)COC[C@H]1O[C@@H]2O[C@H]3[C@H](O)[C@@H](O)[C@@H](O[C@H]4[C@H](O)[C@@H](O)[C@@H](O[C@H]5[C@H](O)[C@@H](O)[C@@H](O[C@H]6[C@H](O)[C@@H](O)[C@@H](O[C@H]7[C@H](O)[C@@H](O)[C@@H](O[C@H]8[C@H](O)[C@@H](O)[C@@H](O[C@H]1[C@H](O)[C@H]2O)O[C@@H]8COCC(C)O)O[C@@H]7COCC(C)O)O[C@@H]6COCC(C)O)O[C@@H]5COCC(C)O)O[C@@H]4COCC(C)O)O[C@@H]3COCC(C)O (stereo partly drawn) [2-HYDROXYPROPYL-BETA-CYCLODEXTRIN] |  |  | Not Active | Not Active | Not Active | Not Active | Not Active | Not Active | Not Active | Not Active |  |  | 
